Consider six molecules from DBAASP.

The structures appear in SMILES notation. ≈ marks a conversion by molar mass, not a printed value.

For orientation: MIC means the lowest concentration that inhibits growth of the organism.

Test systems include Vibrio parahaemolyticus; Escherichia coli; Vibrio fluvialis; Aeromonas hydrophila; Vibrio alginolyticus; Staphylococcus aureus; Fusarium solani; Ramulariopsis gossypii; Trichoderma asperellum; Fusarium oxysporum; Rhizoctonia solani; Pseudomonas aeruginosa; Streptococcus agalactiae; Candida albicans.
Assay in all cases: ≥ marks a high value that may be exact or a test limit, other limits are often not marked, values filed in µg/mL are converted to µM
Test [1] relates to Bacillus subtilis ATCC 23857.
Test [2] concerns Fusarium oxysporum f.sp. vasinfectum.
Test [3] deals with Cryptococcus neoformans ATCC 28957.
For test [4], the system named is Bacillus cereus ATCC 14579.
The test system of test [5] is Pseudomonas syringae pv. tabaci.
The subject of test [6] is Pectobacterium carotovorum.
Test [7] deals with Escherichia coli ATCC 25922.
The test system of test [8] is Candida albicans ATCC 90028.
Test [9] concerns Staphylococcus aureus ATCC 25923.
The subject of test [10] is Xanthomonas campestris pv. citri.
Test [11] concerns Pseudomonas aeruginosa ATCC 27853.
Test [12] deals with Acinetobacter calcoaceticus.
For test [13], the system named is Escherichia coli ATCC 35218.
In test [14] the test system is Escherichia coli ATCC 11775.
For test [15], the system named is Salmonella enterica subsp. enterica serovar Typhi Vi+.
For test [16], the system named is Salmonella enterica subsp. enterica serovar Typhimurium ATCC 14028.

`CC[C@H](C)[C@H](NC(=O)[C@H](Cc1cnc[nH]1)NC(=O)[C@H](C)NC(=O)[C@@H](NC(=O)[C@H](CC(N)=O)NC(=O)[C@H](Cc1cnc[nH]1)NC(=O)[C@H](CC(C)C)NC(=O)[C@H](C)NC(=O)CNC(=O)[C@H](Cc1ccc(O)cc1)NC(=O)[C@@H](N)Cc1ccc(O)cc1)[C@@H](C)O)C(=O)N[C@H](C(=O)N[C@@H](CC(C)C)C(=O)NCC(=O)N[C@@H](CCCN=C(N)N)C(=O)O)C(C)C` [YYGALHNTAHIVLGR]: the MIC against Vibrio parahaemolyticus is not below 148 µM; with Escherichia coli it was 74.2 µM (≈ 125 µg/mL); in the test with Vibrio fluvialis, not below 148 µM; against Aeromonas hydrophila, not below 74.2 µM; against Vibrio alginolyticus it was 9.26 µM (≈ 15.6 µg/mL); against Staphylococcus aureus it was more than 148 µM.
With `CSCC[C@H](NC(=O)[C@H](CCCCN)NC(=O)[C@H](Cc1ccc(O)cc1)NC(=O)[C@H](C)NC(=O)[C@H](CCC(=O)O)NC(=O)[C@H](CC(C)C)NC(=O)[C@H](CC(C)C)NC(=O)[C@H](CCCN=C(N)N)NC(=O)[C@H](CC(N)=O)NC(=O)[C@H](C)N)C(=O)N[C@@H](CC(C)C)C(=O)N[C@@H](CC(C)C)C(=O)N[C@@H](CCCCN)C(=O)N[C@@H](Cc1ccccc1)C(=O)N[C@@H](CC(C)C)C(=O)NCC(=O)N[C@@H](CC(N)=O)C(=O)N[C@@H](CC(C)C)C(=O)N[C@@H](CCCN=C(N)N)C(N)=O` [ANRLLEAYKMLLKFLGNLR], the MIC in [1] was found to be 1 µM (≈ 2.26 µg/mL); in [2] it was 1.67 µM (≈ 3.78 µg/mL); in test [3] it was 2.67 µM (≈ 6.04 µg/mL); in [4], 4 µM (≈ 9.05 µg/mL); against Fusarium solani it was 2 µM (≈ 4.53 µg/mL); against Ramulariopsis gossypii, 2 µM (≈ 4.53 µg/mL). Also, the MIC in test [5] was 2 µM (≈ 4.53 µg/mL); against Trichoderma asperellum, 4 µM (≈ 9.05 µg/mL); in [6], 1 µM (≈ 2.26 µg/mL); in test [7], 4 µM (≈ 9.05 µg/mL); against Fusarium oxysporum, 4 µM (≈ 9.05 µg/mL); in the test with Rhizoctonia solani it was 4 µM (≈ 9.05 µg/mL). Also, the MIC in test [8] was found to be 4 µM (≈ 9.05 µg/mL); in test [9], 1 µM (≈ 2.26 µg/mL); in [10], 4 µM (≈ 9.05 µg/mL); in [11] it was 32 µM (≈ 72.4 µg/mL).
As to `CC[C@H](C)[C@H](NC(=O)[C@H](C)NC(=O)[C@H](Cc1cnc[nH]1)NC(=O)[C@@H]1CCCN1C(=O)[C@@H](NC(=O)[C@H](CC(C)C)NC(=O)[C@H](CO)NC(=O)[C@H](CC(C)C)NC(=O)[C@@H](N)Cc1ccccc1)[C@@H](C)CC)C(=O)N[C@@H](CC(N)=O)C(=O)N[C@@H](C)C(=O)N[C@H](C(=O)N[C@@H](CO)C(=O)N[C@@H](C)C(=O)N[C@@H](CC(C)C)C(=O)N[C@@H](C)C(=O)N[C@@H](CC(N)=O)C(=O)N[C@@H](Cc1cnc[nH]1)C(=O)NCC(N)=O)C(C)C` [FLSLIPHAINAVSALANHG], the MIC was 32.8 µM (≈ 63.8 µg/mL) in the test on Pseudomonas aeruginosa; 4.1 µM (≈ 7.97 µg/mL) in test [12]; 4.1 µM (≈ 7.97 µg/mL) in the test with Streptococcus agalactiae; 8.2 µM (≈ 15.9 µg/mL) against Candida albicans; 8.2 µM (≈ 15.9 µg/mL) in the test on Staphylococcus aureus.
Consider `CC[C@H](C)[C@H](NC(=O)[C@@H]1CCCN1C(=O)[C@H](CCCN=C(N)N)NC(=O)[C@@H]1CCCN1C(=O)[C@H](Cc1cnc[nH]1)NC(=O)[C@H](CO)NC(=O)[C@@H](NC(=O)[C@@H]1CCCN1C(=O)[C@H](CCCN=C(N)N)NC(=O)[C@@H]1CCCN1C(=O)[C@H](CO)NC(=O)[C@H](Cc1ccc(O)cc1)NC(=O)[C@@H]1CCCN1C(=O)[C@H](CCCCN)NC(=O)[C@@H]1CCCN1C(=O)[C@H](CCCCN)NC(=O)CN)[C@@H](C)O)C(=O)N[C@@H](CCCN=C(N)N)C(=O)N[C@H](C(=O)O)C(C)C` [GKPKPYSPRPTSHPRPIRV], for which the MIC in test [13] worked out at 0.6 µM (≈ 1.3 µg/mL); in [14], 1.1 µM (≈ 2.39 µg/mL); in [7], 1.5 µM (≈ 3.26 µg/mL); in test [15] it was 4 µM (≈ 8.68 µg/mL); in test [16], 4 µM (≈ 8.68 µg/mL).
As for `CSCC[C@H](NC(=O)[C@H](Cc1ccccc1)NC(=O)CNC(=O)[C@H](Cc1cnc[nH]1)NC(=O)[C@H](CC(C)C)NC(=O)[C@H](CO)NC(=O)CN)C(=O)N[C@@H](Cc1ccc(O)cc1)C(=O)N[C@@H](CCCCN)C(=O)N[C@@H](Cc1ccc(O)cc1)C(=O)N[C@@H](CC(C)C)C(=O)N[C@@H](CCCCN)C(=O)N[C@@H](CC(N)=O)C(=O)N[C@@H](CCSC)C(=O)N[C@H](C(=O)N[C@@H](CC(C)C)C(=O)N[C@H](C(=O)N[C@@H](CC(C)C)C(=O)N[C@@H](Cc1ccccc1)C(N)=O)[C@@H](C)O)C(C)C` [GSLHGFMYKYLKNMVLTLF], the MIC in [1] is 16 µM (≈ 36.2 µg/mL); in [2], 8 µM (≈ 18.1 µg/mL); in [3] it was 16 µM (≈ 36.2 µg/mL); in test [4] it was not below 128 µM; in the test with Fusarium solani, not below 32 µM; against Ramulariopsis gossypii, 4 µM (≈ 9.05 µg/mL). Moreover, the MIC in [5] was 16 µM (≈ 36.2 µg/mL); in the test with Trichoderma asperellum, 8 µM (≈ 18.1 µg/mL); in test [6] it was not below 256 µM; in test [7], 64 µM (≈ 145 µg/mL); in the test with Fusarium oxysporum it was 16 µM (≈ 36.2 µg/mL); in test [8], 16 µM (≈ 36.2 µg/mL). Moreover, the MIC was 16 µM (≈ 36.2 µg/mL) in [9], not below 128 µM in test [10] and 32 µM (≈ 72.4 µg/mL) in test [11].
As to `CC[C@H](C)[C@H](NC(=O)[C@@H]1CCCN1C(=O)[C@H](CCCCN)NC(=O)[C@@H]1CCCN1C(=O)[C@H](Cc1cnc[nH]1)NC(=O)[C@H](CO)NC(=O)[C@@H](NC(=O)[C@@H]1CCCN1C(=O)[C@H](CCCN=C(N)N)NC(=O)[C@@H]1CCCN1C(=O)[C@H](CO)NC(=O)[C@H](Cc1ccc(O)cc1)NC(=O)[C@@H]1CCCN1C(=O)[C@H](CCCN=C(N)N)NC(=O)[C@@H]1CCCN1C(=O)[C@H](CCCCN)NC(=O)CN)[C@@H](C)O)C(=O)N[C@@H](CCCN=C(N)N)C(=O)N[C@H](C(=O)O)C(C)C` [GKPRPYSPRPTSHPKPIRV], the MIC turned out to be 3.5 µM (≈ 7.6 µg/mL) in [13]; 6 µM (≈ 13 µg/mL) in test [14]; 7 µM (≈ 15.2 µg/mL) in test [7]; 30 µM (≈ 65.1 µg/mL) in [15]; 25 µM (≈ 54.3 µg/mL) in test [16].
